Results: the supplement of paper PMC11061612

Experiments:
[1] = test system: KARPAS-1106P (B-Cell Non-Hodgkin's Lymphoma); assay: combination Emax (second highest fraction inhibited in the dose matrix, 72 h); higher = more inhibition; extreme values may be limits of the assay
How it was run: (§1)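 After 24 hours at 37°C and 5% CO2 in 1536-well plates, cells in DMEM/F12 or RPMI plus 10% FBS received two-drug dose matrices for 72 hours. Viability came from CellTiter-Glo 2.0 luminescence and was scaled as inhibition, anchored at 0 by vehicle wells and at 1 by blank wells. Combination Emax is taken as the second-highest inhibition in the matrix, and Bliss excess as the observed combination effect less EA + EB − EA·EB, with EA and EB the single-agent effects.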

[2] = test system: LU-99A (Non-Small Cell Lung Carcinoma); assay: as above
How it was run: as §1

[3] = test system: SW1783 (Low Grade Glioma); assay: as above
How it was run: as §1

[4] = test system: HT-29 (Colorectal Carcinoma); assay: as above
How it was run: as §1

[5] = test system: HPAC (Pancreatic Carcinoma); assay: as above
How it was run: as §1

[6] = test system: DB (B-Cell Non-Hodgkin's Lymphoma); assay: as above
How it was run: as §1

[7] = test system: DSH1 (Bladder Carcinoma); assay: as above
How it was run: as §1

[8] = test system: SUIT-2 (Pancreatic Carcinoma); assay: as above
How it was run: as §1

[9] = test system: NCI-H1299 (Non-Small Cell Lung Carcinoma); assay: as above
How it was run: as §1

[10] = test system: IHH-4 (Thyroid Gland Carcinoma); assay: Bliss excess, mean over the matrix (fraction); higher = more synergy
How it was run: as §1

[11] = test system: G-292-Clone-A141B1 (Osteosarcoma); assay: as above
How it was run: as §1

[12] = test system: CAL-78 (Chondrosarcoma); assay: as above
How it was run: as §1

[13] = test system: RH-1 (Ewing's Sarcoma); assay: as above
How it was run: as §1

[14] = test system: KM-H2 (Hodgkin's Lymphoma); assay: as above
How it was run: as §1

[15] = test system: MDA-MB-231 (Breast Carcinoma); assay: as above
How it was run: as §1

[16] = test system: 697 (B-Lymphoblastic Leukemia); assay: as above
How it was run: as §1

[17] = test system: CFPAC-1 (Pancreatic Carcinoma); assay: as above
How it was run: as §1

[18] = test system: MDA-MB-157 (Breast Carcinoma); assay: as above
How it was run: as §1

[19] = test system: ES7 (Ewing's Sarcoma); assay: as above
How it was run: as §1

[20] = test system: J82 (Bladder Carcinoma); assay: as above
How it was run: as §1
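For Bliss excess, mean over the matrix in this document: after 72 h of two-drug dosing.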

CN(C)CCCOc1ccc(-c2ccc3ncc4c(c3c2)n(C2CCOCC2)c(=O)n4C)cn1 [AZD0156] + C=CCn1c(=O)c2cnc(Nc3ccc(N4CCN(C)CC4)cc3)nc2n1-c1cccc(C(C)(C)O)n1 [AZD1775] (first compound max 1 µM, partner max 1 µM)
combination Emax [1]: 0.874 | combination Emax [2]: 0.677 | combination Emax [3]: 0.179 | combination Emax [4]: 0.83 | combination Emax [5]: 0.67 | combination Emax [6]: 0.891 | combination Emax [7]: 0.421 | combination Emax [8]: 0.619 | combination Emax [9]: 0.742 | Bliss excess [10]: 0.0247 | Bliss excess [11]: -0.0538 | Bliss excess [12]: -0.0854 | Bliss excess [13]: 0.0329 | Bliss excess [14]: 0.0303 | Bliss excess [15]: -0.0415 | Bliss excess [16]: 0.0183 | Bliss excess [17]: -0.0645 | Bliss excess [18]: -0.0177 | Bliss excess [19]: -0.0153 | Bliss excess [20]: -0.0194

COc1cc2c(cc1OCCCCCOc1cc3c(cc1OC)C(=O)N1C=C(C)C[C@H]1C=N3)N=C[C@@H]1CC(C)=CN1C2=O [SG3199] + O=C(c1cc(Cc2n[nH]c(=O)c3ccccc23)ccc1F)N1CCN(C(=O)C2CC2)CC1 [Olaparib] (first compound max 0.001 µM, 7x7, partner max 10 µM)
combination Emax [1]: 0.467 | combination Emax [2]: 0.356 | combination Emax [3]: 0.0897 | combination Emax [4]: 0.0781 | combination Emax [5]: 0.0597 | combination Emax [6]: 0.347 | combination Emax [7]: 0.25 | combination Emax [8]: 0.187 | combination Emax [9]: 0.138 | Bliss excess [10]: -0.0115 | Bliss excess [11]: -0.0571 | Bliss excess [12]: -0.0831 | Bliss excess [13]: -0.0035 | Bliss excess [14]: 0.0232 | Bliss excess [15]: -0.0808 | Bliss excess [16]: 0.0376 | Bliss excess [17]: -0.0329 | Bliss excess [18]: -0.0185 | Bliss excess [19]: 0.0011 | Bliss excess [20]: 0.0123

Cc1c2c(nn1C)CSCc1cc(n(C)n1)CSc1cc(c3ccccc3c1)OCCCc1c(C(=O)O)n(C)c3c-2c(Cl)ccc13 [AZD5991] + C[C@@H]1COCCN1C2=NC(=NC(=C2)C3(CC3)[S@](=N)(=O)C)C4=C5C=CNC5=NC=C4 [AZD6738] (first compound max 1 µM, 7x7, partner max 10 µM)
combination Emax [1]: 0.965 | combination Emax [2]: 0.572 | combination Emax [3]: 0.441 | combination Emax [4]: 0.836 | combination Emax [5]: 0.683 | combination Emax [6]: 0.999 | combination Emax [7]: 0.919 | combination Emax [8]: 0.424 | combination Emax [9]: 0.71 | Bliss excess [10]: 0.0349 | Bliss excess [11]: -0.001 | Bliss excess [12]: 0.0335 | Bliss excess [13]: -0.0221 | Bliss excess [14]: 0.0236 | Bliss excess [15]: 0.0132 | Bliss excess [16]: 0.0058 | Bliss excess [17]: 0.0442 | Bliss excess [18]: -0.0076 | Bliss excess [19]: 0.0521 | Bliss excess [20]: 0.0009

CC1(C)CCC(CN2CCN(c3ccc(C(=O)NS(=O)(=O)c4ccc(NCC5CCOCC5)c([N+](=O)[O-])c4)c(Oc4cnc5[nH]ccc5c4)c3)CC2)=C(c2ccc(Cl)cc2)C1 [Venetoclax] + CN(C)CCCOc1ccc(-c2ccc3ncc4c(c3c2)n(C2CCOCC2)c(=O)n4C)cn1 [AZD0156] (first compound max 1 µM, 7x7, partner max 1 µM)
combination Emax [1]: 0.552 | combination Emax [2]: 0.16 | combination Emax [3]: 0.24 | combination Emax [4]: 0.233 | combination Emax [5]: 0.26 | combination Emax [6]: 0.971 | combination Emax [7]: 0.156 | combination Emax [8]: 0.207 | combination Emax [9]: 0.214 | Bliss excess [10]: -0.0153 | Bliss excess [11]: -0.0367 | Bliss excess [12]: -0.0043 | Bliss excess [13]: -0.0098 | Bliss excess [14]: -0.0012 | Bliss excess [15]: 0.0067 | Bliss excess [16]: -0.0012 | Bliss excess [17]: 0.0025 | Bliss excess [18]: -0.0087 | Bliss excess [19]: 0.0317 | Bliss excess [20]: 0.0014

CN(C)CCCOc1ccc(-c2ccc3ncc4c(c3c2)n(C2CCOCC2)c(=O)n4C)cn1 [AZD0156] + O=C(c1cc(Cc2n[nH]c(=O)c3ccccc23)ccc1F)N1CCN(C(=O)C2CC2)CC1 [Olaparib] (first compound max 3 µM, partner max 3 µM)
combination Emax [1]: 0.551 | combination Emax [2]: 0.408 | combination Emax [3]: 0.401 | combination Emax [4]: 0.407 | combination Emax [5]: 0.36 | combination Emax [6]: 0.476 | combination Emax [7]: 0.387 | combination Emax [8]: 0.195 | combination Emax [9]: 0.335 | Bliss excess [10]: 0.0949 | Bliss excess [11]: -0.0003 | Bliss excess [12]: 0.0042 | Bliss excess [13]: 0.265 | Bliss excess [14]: 0.0575 | Bliss excess [15]: 0.0221 | Bliss excess [16]: 0.186 | Bliss excess [17]: -0.0026 | Bliss excess [18]: -0.0302 | Bliss excess [19]: 0.291 | Bliss excess [20]: -0.0375

C[C@@H](c1ccc2nccn2c1)n1nnc2ncc(-c3cnn(C)c3)nc21 [Savolitinib] + Cc1c2c(nn1C)CSCc1cc(n(C)n1)CSc1cc(c3ccccc3c1)OCCCc1c(C(=O)O)n(C)c3c-2c(Cl)ccc13 [AZD5991] (first compound max 1 µM, 7x7, partner max 1 µM)
combination Emax [1]: 0.734 | combination Emax [2]: 0.134 | combination Emax [3]: 0.22 | combination Emax [4]: 0.142 | combination Emax [5]: 0.168 | combination Emax [6]: 0.986 | combination Emax [7]: 0.678 | combination Emax [8]: 0.208 | combination Emax [9]: 0.151 | Bliss excess [10]: -0.0182 | Bliss excess [11]: -0.0381 | Bliss excess [12]: -0.117 | Bliss excess [13]: 0.0031 | Bliss excess [14]: -0.0286 | Bliss excess [15]: -0.0186 | Bliss excess [16]: -0.0516 | Bliss excess [17]: -0.0875 | Bliss excess [18]: -0.0501 | Bliss excess [19]: -0.017 | Bliss excess [20]: -0.0717
